# From patent US6930203B2, “Gelling agents or thickeners” (Applied NanoSystems B.V., priority 2001, dated 2005)
# Assay: Solvent scope of N,N′-dialkylaldaramides (1%) or N,N′-dialkylpentaramides (1%): gelation/solubility behaviour in solvents
# Format: physicochemical
# Set-up: key: g = gelation; s = soluble; p = precipitates; c = crystallizes; ns = not soluble; v = viscous; g* = unstable gel, precipitates; cg = crystalline gel
# Settings: 1% gelling agent; 1,2-dichloroethane
# Description: It will be understood that the use of the present gelling agents or thickeners to prepare a gel or to thicken a composition is also encompassed by the invention. As is well known, gelling behavior of compounds or compositions is highly unpredictable. […] Preferably, the gelling phenomenon is thermo reversible.
# Preferred examples include aromatic and nonaromatic hydrocarbons, alcohols, ethers, esters, aldehydes, alkanoic acids, epoxides, amines, halogenated hydrocarbons, silicon oils, vegetable oils, phosphoric esters, sulfoxides, water and mixtures thereof. In order to obtain a gel, the gelling agent or thickener is preferably mixed with the composition to be transformed to a gel in an amount of between 0.01 and 50 wt. %, based on the weight of the composition. In a preferred embodiment, the mixture of the gelling agent or thickener and the composition is heated to allow for an even better gel formation or thickening. Typically, the heating will involve raising the temperature of the mixture to about 30-175° C. until a clear solution is obtained. In an alternative embodiment, the gelling agent is first dissolved in a polar or apolar solvent and then added to or sprayed into a composition or solvent to be converted into a gel.
# Solvent scope of N,N′-dialkylaldaramides (1%) or N,N′-dialkylpentaramides (1%) 1-24 refers to the compounds prepared in Examples 1-23)
row,SMILES,"Gelation/solubility behaviour in 1,2-dichloroethane"
1,"CCCCCCCCNC(=O)[C@@H](O)[C@H](O)[C@H](O)[C@@H](O)C(=O)NCCCCCCCC [Example 10, dioctyl galactaramide]",ns
2,"CCCCCCCCCCCCNC(=O)[C@@H](O)[C@@H](O)[C@H](O)[C@H](O)C(=O)NCCCCCCCCCCCC [Example 13, didodecyl D-mannaramide]",c
3,"O=C(NC1CCCCCCCCCCC1)[C@@H](O)[C@@H](O)[C@H](O)[C@H](O)C(=O)NC1CCCCCCCCCCC1 [Example 16, dicyclododecyl D-mannaramide]",c

# Same assay, conditions: 1% gelling agent; 2-octanol
row,SMILES,Gelation/solubility behaviour in 2-octanol
1,"CCCCCCCCNC(=O)[C@@H](O)[C@H](O)[C@H](O)[C@@H](O)C(=O)NCCCCCCCC [Example 10, dioctyl galactaramide]",ns
2,"CCCCCCCCCCCCNC(=O)[C@@H](O)[C@@H](O)[C@H](O)[C@H](O)C(=O)NCCCCCCCCCCCC [Example 13, didodecyl D-mannaramide]",p
3,"O=C(NC1CCCCCCCCCCC1)[C@@H](O)[C@@H](O)[C@H](O)[C@H](O)C(=O)NC1CCCCCCCCCCC1 [Example 16, dicyclododecyl D-mannaramide]",s

# Same assay, conditions: 1% gelling agent; 2-propanol
row,SMILES,Gelation/solubility behaviour in 2-propanol
1,"CCCCCCCCNC(=O)[C@@H](O)[C@H](O)[C@H](O)[C@@H](O)C(=O)NCCCCCCCC [Example 10, dioctyl galactaramide]",ns
2,"CCCCCCCCCCCCNC(=O)[C@@H](O)[C@@H](O)[C@H](O)[C@H](O)C(=O)NCCCCCCCCCCCC [Example 13, didodecyl D-mannaramide]",c
3,"O=C(NC1CCCCCCCCCCC1)[C@@H](O)[C@@H](O)[C@H](O)[C@H](O)C(=O)NC1CCCCCCCCCCC1 [Example 16, dicyclododecyl D-mannaramide]",cg

# Same assay, conditions: 1% gelling agent; Cyclohexane
row,SMILES,Gelation/solubility behaviour in Cyclohexane
1,"CCCCCCCCNC(=O)[C@@H](O)[C@H](O)[C@H](O)[C@@H](O)C(=O)NCCCCCCCC [Example 10, dioctyl galactaramide]",ns
2,"CCCCCCCCCCCCNC(=O)[C@@H](O)[C@@H](O)[C@H](O)[C@H](O)C(=O)NCCCCCCCCCCCC [Example 13, didodecyl D-mannaramide]",ns
3,"O=C(NC1CCCCCCCCCCC1)[C@@H](O)[C@@H](O)[C@H](O)[C@H](O)C(=O)NC1CCCCCCCCCCC1 [Example 16, dicyclododecyl D-mannaramide]",ns

# Same assay, conditions: 1% gelling agent; Dimethylsulfoxide
row,SMILES,Gelation/solubility behaviour in Dimethylsulfoxide
1,"CCCCCCCCNC(=O)[C@@H](O)[C@H](O)[C@H](O)[C@@H](O)C(=O)NCCCCCCCC [Example 10, dioctyl galactaramide]",s
2,"CCCCCCCCCCCCNC(=O)[C@@H](O)[C@@H](O)[C@H](O)[C@H](O)C(=O)NCCCCCCCCCCCC [Example 13, didodecyl D-mannaramide]",c
3,"O=C(NC1CCCCCCCCCCC1)[C@@H](O)[C@@H](O)[C@H](O)[C@H](O)C(=O)NC1CCCCCCCCCCC1 [Example 16, dicyclododecyl D-mannaramide]",p

# Same assay, conditions: 1% gelling agent; Ethanol
row,SMILES,Gelation/solubility behaviour in Ethanol
1,"CCCCCCCCNC(=O)[C@@H](O)[C@H](O)[C@H](O)[C@@H](O)C(=O)NCCCCCCCC [Example 10, dioctyl galactaramide]",c
2,"CCCCCCCCCCCCNC(=O)[C@@H](O)[C@@H](O)[C@H](O)[C@H](O)C(=O)NCCCCCCCCCCCC [Example 13, didodecyl D-mannaramide]",ns
3,"O=C(NC1CCCCCCCCCCC1)[C@@H](O)[C@@H](O)[C@H](O)[C@H](O)C(=O)NC1CCCCCCCCCCC1 [Example 16, dicyclododecyl D-mannaramide]",p

# Same assay, conditions: 1% gelling agent; Hexadecane
row,SMILES,Gelation/solubility behaviour in Hexadecane
1,"CCCCCCCCNC(=O)[C@@H](O)[C@H](O)[C@H](O)[C@@H](O)C(=O)NCCCCCCCC [Example 10, dioctyl galactaramide]",ns
2,"CCCCCCCCCCCCNC(=O)[C@@H](O)[C@@H](O)[C@H](O)[C@H](O)C(=O)NCCCCCCCCCCCC [Example 13, didodecyl D-mannaramide]",ns
3,"O=C(NC1CCCCCCCCCCC1)[C@@H](O)[C@@H](O)[C@H](O)[C@H](O)C(=O)NC1CCCCCCCCCCC1 [Example 16, dicyclododecyl D-mannaramide]",ns

# Same assay, conditions: 1% gelling agent; Toluene
row,SMILES,Gelation/solubility behaviour in Toluene
1,"CCCCCCCCNC(=O)[C@@H](O)[C@H](O)[C@H](O)[C@@H](O)C(=O)NCCCCCCCC [Example 10, dioctyl galactaramide]",ns
2,"CCCCCCCCCCCCNC(=O)[C@@H](O)[C@@H](O)[C@H](O)[C@H](O)C(=O)NCCCCCCCCCCCC [Example 13, didodecyl D-mannaramide]",ns
3,"O=C(NC1CCCCCCCCCCC1)[C@@H](O)[C@@H](O)[C@H](O)[C@H](O)C(=O)NC1CCCCCCCCCCC1 [Example 16, dicyclododecyl D-mannaramide]",ns

# Same assay, conditions: 1% gelling agent; Water
row,SMILES,Gelation/solubility behaviour in Water
1,"CCCCCCCCNC(=O)[C@@H](O)[C@H](O)[C@H](O)[C@@H](O)C(=O)NCCCCCCCC [Example 10, dioctyl galactaramide]",ns
2,"CCCCCCCCCCCCNC(=O)[C@@H](O)[C@@H](O)[C@H](O)[C@H](O)C(=O)NCCCCCCCCCCCC [Example 13, didodecyl D-mannaramide]",ns
3,"O=C(NC1CCCCCCCCCCC1)[C@@H](O)[C@@H](O)[C@H](O)[C@H](O)C(=O)NC1CCCCCCCCCCC1 [Example 16, dicyclododecyl D-mannaramide]",ns

# Same assay, conditions: 1% gelling agent; n-butylacetate
row,SMILES,Gelation/solubility behaviour in n-butylacetate
1,"CCCCCCCCNC(=O)[C@@H](O)[C@H](O)[C@H](O)[C@@H](O)C(=O)NCCCCCCCC [Example 10, dioctyl galactaramide]",ns
2,"CCCCCCCCCCCCNC(=O)[C@@H](O)[C@@H](O)[C@H](O)[C@H](O)C(=O)NCCCCCCCCCCCC [Example 13, didodecyl D-mannaramide]",ns
3,"O=C(NC1CCCCCCCCCCC1)[C@@H](O)[C@@H](O)[C@H](O)[C@H](O)C(=O)NC1CCCCCCCCCCC1 [Example 16, dicyclododecyl D-mannaramide]",ns

# Same assay, conditions: 1% gelling agent; p-xylene
row,SMILES,Gelation/solubility behaviour in p-xylene
1,"CCCCCCCCNC(=O)[C@@H](O)[C@H](O)[C@H](O)[C@@H](O)C(=O)NCCCCCCCC [Example 10, dioctyl galactaramide]",ns
2,"CCCCCCCCCCCCNC(=O)[C@@H](O)[C@@H](O)[C@H](O)[C@H](O)C(=O)NCCCCCCCCCCCC [Example 13, didodecyl D-mannaramide]",ns
3,"O=C(NC1CCCCCCCCCCC1)[C@@H](O)[C@@H](O)[C@H](O)[C@H](O)C(=O)NC1CCCCCCCCCCC1 [Example 16, dicyclododecyl D-mannaramide]",ns
